Data reported in patent publication US10280197B2, “Discovery of the first selective C5A receptor 2 (C5L2/C5AR2) ligands” (The Regents of the University of California, priority 2015, dated 2019).

How the values were obtained:
C5a2 [1] = target: T1, C5a2 (Homo sapiens, UniProt Q9P296); assay: DiscoveRx PathHunter β-arrestin 2 recruitment, C5a2; type: cell-based; set-up: purchased DiscoveRx Corporation (Birmingham, UK); settings: 100 μM, data not shown
Target sequence in this assay (Q9P296 whole entry): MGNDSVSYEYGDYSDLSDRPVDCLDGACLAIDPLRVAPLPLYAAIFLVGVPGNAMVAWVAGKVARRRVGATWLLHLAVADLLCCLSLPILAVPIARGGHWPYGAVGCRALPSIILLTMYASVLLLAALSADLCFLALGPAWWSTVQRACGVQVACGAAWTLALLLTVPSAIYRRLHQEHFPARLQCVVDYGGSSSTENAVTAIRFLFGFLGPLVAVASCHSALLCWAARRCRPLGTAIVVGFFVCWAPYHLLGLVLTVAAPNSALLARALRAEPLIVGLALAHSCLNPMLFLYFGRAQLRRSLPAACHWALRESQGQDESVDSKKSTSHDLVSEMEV

C5a1-C5a2 heteromer = target: T2, C5a1-C5a2 heteromer (Homo sapiens, UniProt P21730+Q9P296); assay: BRET ligand-induced heteromer formation between C5a1 and C5a2; type: cell-based; settings: P32 or P59 100 μM
T2 construct: expressed in transfected cells; host or cells: HEK293 (transient)
T2 sequence (Q9P296 whole entry, one chain of several): as the sequence (Q9P296 whole entry) above
Procedure: Assays were performed as a ligand-induced BRET experiment similar to previously described^17, 31, 49. In brief, HEK293 cells were transiently transfected with either C5a1-Rluc8 and β-arrestin 2-Venus or C5a2-Venus and β-arrestin 2-Rluc8 or C5a1-Rluc8 and C5a2-Venus in a 100-mm dish. 24 h after transfection cells were collected and transferred to a 96-well white microplate (Corning, N.Y., USA) in phenol-red free DMEM containing 5% FBS and 25 mM HEPES (Life Technologies). Cells were allowed to settle for 24 h and then were incubated with 30 μM Enduren (Promega, Madison, Wis., USA) for 2 h at 37° C. and 5% CO2 to ensure that the substrate had reached equilibrium. Following incubation BRET baseline measurements were taken for 15 min then ligands were added to plate and BRET measurements were taken for a further 1 h at 37° C. using a POLARstar optima microplate reader (BMG Labtech, Ortenberg, Germany). Filtered light emissions were sequentially measured for 1 s in each of the following windows 460-490 nm and 520-550 nm, both before and following ligand addition. The ligand-induced BRET ratio was calculated by subtracting the ratio of 520-550 nm emission over the 460-490 nm emission for a vehicle-treated sample from a ligand-treated sample of the same aliquot of cells in triplicate. […]

C5a1 = target: T3, C5a1 (Homo sapiens, UniProt P21730); settings: up to a concentration of 100 μM, reference 27; cited from earlier work
T3 sequence (P21730 1-350): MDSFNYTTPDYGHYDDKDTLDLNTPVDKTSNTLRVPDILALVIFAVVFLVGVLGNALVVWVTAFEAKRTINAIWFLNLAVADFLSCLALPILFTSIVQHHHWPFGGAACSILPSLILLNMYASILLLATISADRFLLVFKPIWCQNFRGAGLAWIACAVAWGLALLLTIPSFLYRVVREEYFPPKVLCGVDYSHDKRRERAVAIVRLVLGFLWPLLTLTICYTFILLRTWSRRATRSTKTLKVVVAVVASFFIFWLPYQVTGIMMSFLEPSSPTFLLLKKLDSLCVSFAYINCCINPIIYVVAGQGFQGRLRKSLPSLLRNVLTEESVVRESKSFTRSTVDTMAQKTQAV

C5a2 [2] = target: T1, C5a2; assay: BRET C5a2-β-arrestin 2 recruitment assay in HEK293 cells; type: cell-based; set-up: expressed in transfected cells; host or cells: HEK293 (transient); settings: for efficacy for β-arrestin 2 recruitment relative to affinity for C5a2: EC50 versus Ki; for EC50: calculated at ~40 min after ligand addition; for type of activity for recruitment of β-arrestin 2 via C5a2: compared to C5a
Procedure: Assays were performed as a ligand-induced BRET experiment similar to previously described^17, 31, 49. In brief, HEK293 cells were transiently transfected with either C5a1-Rluc8 and β-arrestin 2-Venus or C5a2-Venus and β-arrestin 2-Rluc8 or C5a1-Rluc8 and C5a2-Venus in a 100-mm dish. 24 h after transfection cells were collected and transferred to a 96-well white microplate (Corning, N.Y., USA) in phenol-red free DMEM containing 5% FBS and 25 mM HEPES (Life Technologies). Cells were allowed to settle for 24 h and then were incubated with 30 μM Enduren (Promega, Madison, Wis., USA) for 2 h at 37° C. and 5% CO2 to ensure that the substrate had reached equilibrium. Following incubation BRET baseline measurements were taken for 15 min then ligands were added to plate and BRET measurements were taken for a further 1 h at 37° C. using a POLARstar optima microplate reader (BMG Labtech, Ortenberg, Germany). Filtered light emissions were sequentially measured for 1 s in each of the following windows 460-490 nm and 520-550 nm, both before and following ligand addition. The ligand-induced BRET ratio was calculated by subtracting the ratio of 520-550 nm emission over the 460-490 nm emission for a vehicle-treated sample from a ligand-treated sample of the same aliquot of cells in triplicate. The BRET ratio was calculated by subtracting the ratio of 520-550 nm emission over the 460-490 nm emission for a cell sample containing the C5a1-Rluc8 or β-arrestin 2-Rluc8 construct from a cell sample containing both the C5a1-Rluc8 and β-arrestin 2-Venus or C5a2-Venus and β-arrestin 2-Rluc8 or C5a1-Rluc8 and C5a2-Venus constructs. Peptides were also tested for ligand-induced β-arrestin 2 recruitment at 100 μM using DiscoveRx PathHunter kits for human C5a1 and C5a2 (DiscoveRx Corporation. Birmingham, UK), according to the manufacturer's instructions.
Target sequence in this assay (Q9P296 whole entry): as the sequence (Q9P296 whole entry) above
Target sequence in this assay (P32121 whole entry partner): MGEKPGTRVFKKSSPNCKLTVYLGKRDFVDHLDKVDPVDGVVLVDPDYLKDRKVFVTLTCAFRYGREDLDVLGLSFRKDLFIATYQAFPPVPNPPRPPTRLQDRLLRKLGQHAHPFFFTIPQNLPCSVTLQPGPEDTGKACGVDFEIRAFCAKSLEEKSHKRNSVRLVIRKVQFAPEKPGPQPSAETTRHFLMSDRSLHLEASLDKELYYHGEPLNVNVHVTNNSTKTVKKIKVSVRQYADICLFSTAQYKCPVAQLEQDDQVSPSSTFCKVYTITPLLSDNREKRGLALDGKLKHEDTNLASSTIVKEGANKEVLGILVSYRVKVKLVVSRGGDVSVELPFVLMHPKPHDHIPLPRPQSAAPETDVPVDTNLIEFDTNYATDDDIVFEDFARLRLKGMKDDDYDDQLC

[3] = target: T4, human C5a2 (Flp-In CHO-C5a2 membranes) (Homo sapiens, UniProt Q9P296); assay: C5a2 receptor binding, scintillation proximity assay (125I-C5a displacement); settings: for Ki: inhibition of 125I-C5a binding to C5a2 membranes; for inhibition of 125I-C5a binding to C5a2 membranes, library screen: single concentration of 100 μM, compared to buffer control, P<0.05; for inhibition of 125I-C5a binding to C5aR2 membranes, full concentration response: up to a maximum concentration of 500 μM
T4 construct: expressed in transfected cells
T4 sequence (Q9P296 whole entry): as the sequence (Q9P296 whole entry) above
Procedure: Membranes were prepared from Flp-In CHO-05a2 cells by a previously described method^46. Briefly, cells were washed with PBS, pH 7.4, and harvested into buffer (50 mM Tris-HCl, pH 7.4, 5 mM MgCl2, 1 mM CaCl2) before homogenizing with a Polytron homogenizer for 3 min on setting 22. Cells were centrifuged at 150×g for 5 min at 4° C. The supernatant was recovered and centrifuged at 22 000×g for 1 h at 4° C. Membrane pellets were then resuspended in 0.4 mL of ice-cold buffer (50 mM Tris-HCl, pH 7.4, 5 mM MgCl2, 1 mM CaCl2, containing 10% glycerol) with aliquots stored at −80° C. The protein concentration of the membrane preparation was determined by Bradford method^47.
C5a2 receptor binding studies were performed using a modification of a previously described scintillation proximity assay (SPA) method^48. Briefly, C5a2 SPA studies were performed in 96-well white isoplates with clear flat bottoms (Perkin Elmer, Waltham, Mass., USA). SPA beads (200 μg/well) were added, following the addition of various concentrations of competing ligands or buffer (6 pM to 500 μM) in a total volume of 80 μL of assay buffer (50 mM Tris-HCl, pH 7.4, 0.5% BSA, 5 mM MgCl2, 1 mM CaCl2). ^125I-C5a (˜20 pM) (specific activity, 2200 Ci mmol^−1) (Perkin Elmer) was added to C5a2 membrane preparations (˜2 μg/well). The final reaction volume per well comprised 20 μL of ligand/buffer, 20 μL of SPA beads, 20 μl of membrane and the assay was initiated by the addition of 20 μL of ^125I-C5a. The plate was then sealed using TopSeal-A (Perkin Elmer) sealing film and incubated with shaking for 1 h at room temperature. Radioligand binding was then assessed for 30 s/well using a 1450 Microbeta scintillation counter (Perkin Elmer).

ligand induced β-arrestin 2 recruitment at C5a2 (PathHunter) (C5a2 [1])	C5a2-β-arrestin 2 BRET Recruitment (% of C5a) (C5a2 [2])	efficacy for β-arrestin 2 recruitment relative to affinity for C5a2 (C5a2 [2]) [fold]	EC50 (C5a2 [2]) [µM]	type of activity for recruitment of β-arrestin 2 via C5a2 (C5a2 [2])	Ki [3] [µM]	affinity for C5aR2 over C5aR1 ([3]; ratio of C5aR1 and C5aR2 affinities) [fold]	inhibition of 125I-C5a binding to C5a2 membranes, library screen [3]	inhibition of 125I-C5a binding to C5aR2 membranes, full concentration response [3]	Substance	up-regulation of heteromer formation between C5a1-C5a2 (C5a1-C5a2 heteromer)	activity (agonist or antagonist) at C5a1 (C5a1)
showed activity at C5a2	52.9 % of C5a	~6	7.6 ± 0.6	partial agonists	48	~10	significant inhibition	dose-dependently inhibited	Ac-LIRLWR-OH [Peptide P59, Ac-LIRLWR-OH]	neither P32 or P59 were able to up-regulate heteromer formation	no activity
showed activity at C5a2	28.8 % of C5a	~37	5.9 ± 3.4	partial agonists	223		significant inhibition	dose-dependently inhibited	Ac-RHYPYWR-OH [Peptide P32, Ac-RHYPYWR-OH]	neither P32 or P59 were able to up-regulate heteromer formation	no activity
